Experiment [1] has as its target T1, monomeric K. phaffii Ero1 (Komagataella phaffii, UniProt F2QNN1, C136A).
T1 construct: His-tagged 1-384 active core, C-terminal amphipathic helix removed, monomer; E. coli BL21(DE3) with CyDisCo
Nature of the experiment: absorbance at […] nm after reflavination and size exclusion. Type of experiment: binding. Conditions: stoichiometry, no affinity constant; 1:2 molar excess FAD+ overnight on ice, phosphate pH 7.0. For orientation: Size exclusion chromatography separates by hydrodynamic size, large species first.

In experiment [2] the target is T2, K. phaffii Ero1-Pdi1 complex (wild type) (Komagataella phaffii, UniProt F2QNN1).
T2 construct: 1:1 disulfide-linked heterodimer (Ero1 Cys136-Pdi1 Cys404); His-tagged Ero1 1-384 core without C-terminal amphipathic helix (45 kDa) plus Pdi1 (56 kDa); E. coli BL21(DE3) with customized CyDisCo; with Protein disulfide-isomerase
The description is as above. Type of experiment: binding. Particulars: stoichiometry, no affinity constant; 1:2 molar excess FAD+ overnight on ice, phosphate pH 7.0.

Data on one compound can be found in article PMC10471769, “Biochemical analysis of Komagataella phaffii oxidative folding proposes novel regulatory mechanisms of disulfide bond formation in yeast” (Scientific Reports, 2023).

T1 sequence (F2QNN1 entry or part of it C136A): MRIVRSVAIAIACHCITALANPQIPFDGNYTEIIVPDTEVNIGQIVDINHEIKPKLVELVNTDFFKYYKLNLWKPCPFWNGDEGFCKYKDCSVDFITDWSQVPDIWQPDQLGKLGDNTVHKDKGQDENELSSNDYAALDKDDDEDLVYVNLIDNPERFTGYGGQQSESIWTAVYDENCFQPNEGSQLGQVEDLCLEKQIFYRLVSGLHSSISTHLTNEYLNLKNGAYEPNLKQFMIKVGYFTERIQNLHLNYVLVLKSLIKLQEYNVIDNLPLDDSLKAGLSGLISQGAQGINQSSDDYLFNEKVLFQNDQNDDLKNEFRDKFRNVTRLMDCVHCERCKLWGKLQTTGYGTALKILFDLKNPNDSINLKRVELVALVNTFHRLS
T2 sequence (F2QNN1 entry or part of it): as the sequence (F2QNN1 entry or part of it C136A) above, with A136C counted along it
T2 sequence (F2QY05 entry or part of it, further chain): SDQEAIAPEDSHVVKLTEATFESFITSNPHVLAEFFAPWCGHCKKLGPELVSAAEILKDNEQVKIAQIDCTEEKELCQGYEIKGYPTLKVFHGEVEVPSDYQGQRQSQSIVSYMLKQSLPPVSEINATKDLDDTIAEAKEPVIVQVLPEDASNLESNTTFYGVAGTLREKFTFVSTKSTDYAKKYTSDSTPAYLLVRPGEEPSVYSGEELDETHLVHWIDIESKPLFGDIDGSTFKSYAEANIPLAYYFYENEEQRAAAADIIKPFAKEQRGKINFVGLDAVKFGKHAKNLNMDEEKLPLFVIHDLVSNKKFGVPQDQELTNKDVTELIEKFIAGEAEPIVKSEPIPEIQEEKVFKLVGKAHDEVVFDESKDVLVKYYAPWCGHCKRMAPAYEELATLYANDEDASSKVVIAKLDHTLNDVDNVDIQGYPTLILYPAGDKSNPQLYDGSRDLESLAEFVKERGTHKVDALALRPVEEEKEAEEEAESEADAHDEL

Regarding `Cc1cc2nc3c(=O)[nH]c(=O)nc-3n(C[C@H](O)[C@H](O)[C@H](O)COP(=O)(O)OP(=O)(O)OC[C@H]3O[C@@H](n4cnc5c(N)ncnc54)[C@H](O)[C@@H]3O)c2cc1C` [FAD+], the “FAD+ molecules per monomer” value in experiment [1] came to 0.85 ± 0.04 molecules per monomer. The “FAD+ molecules per complex” value in experiment [2] was 0.93 ± 0.05 molecules per complex.
